{"source": "patent US20250154180A1", "about": "“CRK-LIKE (CRKL) ADAPTOR PROTEIN INHIBITORS AND METHODS OF MAKING AND USING THE SAME” (Rutgers, The State University of New Jersey, priority 2022, published 2025)", "key": {"[1]": {"assay": "Mouse toxicity assays (serum ALT, AST, BUN, creatinine)", "assay_type": "in vivo, mice", "settings": "mouse, in vivo", "experimental": "Three mice were treated in each group. Blood samples were collected from every mouse in pre-treatment and post-treatment (20 days), and serum was obtained for alanine aminotransferase (ALT, SGPT, FIG. 12A), aspartate aminotransferase (AST, SGOT, FIG. 12B), blood urea nitrogen (BUN, FIG. 12C), and creatinine (FIG. 12D) tests to monitor liver and kidney toxicity. The normal Reference Ranges for ALT is 17-77 IU/L; AST is 54-298 IU/L; BUN is 18.5-33.3 mg/dL; Cr is 0-0.40 mg/dL.\nMouse toxicity assays—Blood was collected from the submandibular facial vein following IACUC guidelines (CMP, Houston Methodist Research Institute and Rutgers University) before and 20-day after the drug treatment. The Department of Veterinary Medicine & Surgery, MD Anderson Cancer Center, performed the clinical biochemistry and pharmacokinetics tests. Blood serum chemistry analysis included alanine transaminase (ALT), aspartate transaminase (AST), blood urea nitrogen (BUN), and creatinine level measurements.\nAlanine aminotransferase (ALT, SGPT), aspartate aminotransferase (AST, SGOT), blood urea nitrogen (BUN), and creatinine levels were examined to determine liver and kidney toxicity of Pomiferin treatments in vivo. […] Nevertheless, these changes have no physiological significance because ALT, AST and BUN levels in all mice were within normal mouse reference ranges. […]"}, "Sk-Hep1 tumor": {"tested_on": "Sk-Hep1 tumor", "assay": "HCC Sk-Hep1 xenograft model", "assay_type": "in vivo, NSG mice", "description": "To further test whether the tumor growth inhibition effect of NC5 applied to other solid tumors, the HCC-Sk-Hep1cell line and PDAC-BXPC3 cell line xenograft models were used. Subcutaneous injection of 1.5×10^6 SK-Hep1 or BXPC3 cells in NSG mice, Six-ten days after tumor cell injection, the palpable tumor in NSG mice was confirmed.\nTo test the effects of the disclosed compounds on the xenograft mouse models, the HCC-Sk-Hep1 cell line xenograft model in NSG mice and 4T1-Luc orthotopic syngeneic breast tumor model in Balb/c mice was used. After confirming the palpable tumor in NSG or Balb/c mice. […] Compound III is referred to as “NC5-140-1” and Compound I is referred to as “NC5-140-2” in FIGS. 11A-11C."}}, "data": [{"smiles": "CC(C)=CCc1c2c(c3occ(-c4ccc(O)c(O)c4)c(=O)c3c1O)C=CC(C)(C)O2", "note": "[Pomiferin, 3′,4′,5-Trihydroxy-6″,6″-dimethyl-6-(3-methylbut-2-en-1-yl)-6″H-pyrano[2″,3″:7,8]isoflavone]", "values": [{"measurement": "damage to the liver and kidneys", "setting": "[1]", "value": "little to no damage to the liver and kidneys"}, {"measurement": "tumor growth", "setting": "Sk-Hep1 tumor; Pomiferin administered orally, two-group study", "value": "suppressed"}, {"measurement": "tumor growth", "setting": "Sk-Hep1 tumor; four-group study, 5.0 μg/g oral gavage", "value": "inhibit tumor growth"}, {"measurement": "median survival", "setting": "Sk-Hep1 tumor; four-group study, 5.0 μg/g oral gavage, vehicle 26 days", "value": 34, "unit": "days"}, {"measurement": "tumor sizes before day 25 of inoculation", "setting": "Sk-Hep1 tumor; four-group study, administered orally", "value": "no significant difference in tumor sizes"}, {"measurement": "median survival, fold longer than vehicle control", "setting": "Sk-Hep1 tumor; two-group study", "value": 1.54, "unit": "fold"}, {"measurement": "median survival", "setting": "Sk-Hep1 tumor; two-group study, 5.0 μg/g oral, vehicle 24 days", "value": 37, "unit": "days"}]}]}
